Patent US10034886B2, “GLP-1 receptor modulators” (Celgene International II SÀRL, priority 2014, dated 2018)
Read-outs that look alike come from different tables or passages of the source.

Target: T1, GLP-1R (Homo sapiens, UniProt P43220)
T1 construct: host or cells: GLP-1R CRE-bla CHO-K1 cells
Experiment: EC20 GLP-1(9-36) PAM cAMP assay: dose response of compound in the presence of fixed concentration of GLP-1(9-36)
Format: cell-based
Settings: GLP-1R CRE-bla CHO-K1 cells, read-out: EC20 GLP-1(9-36) PAM EC50
Procedure, shortened: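 Positive allosteric modulation read as cAMP accumulation: compound titrations (12 points) combined with an EC20 level of GLP-1(9-36) on CHO-K1 GLP-1R CRE-bla cells, IBMX present, 30 min, 37 °C, pH 7.4 buffer. Luminescence converted to cAMP via standards; non-linear fit gave EC50 and Emax.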

[1] = dose response of compound in presence of fixed concentration of GLP-1(9-36)
[2] = compound dose response with fixed concentration of GLP-1(9-36)

T1 sequence (P43220 24-463): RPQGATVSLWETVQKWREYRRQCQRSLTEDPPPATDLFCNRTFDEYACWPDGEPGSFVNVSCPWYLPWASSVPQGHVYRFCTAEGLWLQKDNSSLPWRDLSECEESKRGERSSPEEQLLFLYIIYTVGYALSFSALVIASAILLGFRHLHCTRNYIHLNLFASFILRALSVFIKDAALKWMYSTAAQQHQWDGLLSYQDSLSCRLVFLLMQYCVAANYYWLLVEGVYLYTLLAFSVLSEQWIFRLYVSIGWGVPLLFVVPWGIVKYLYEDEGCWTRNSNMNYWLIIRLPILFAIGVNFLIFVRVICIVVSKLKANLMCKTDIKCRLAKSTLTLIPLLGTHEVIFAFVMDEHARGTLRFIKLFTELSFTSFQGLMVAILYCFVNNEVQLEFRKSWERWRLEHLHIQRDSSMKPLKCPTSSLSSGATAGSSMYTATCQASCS
T1 sequence (P01275 100-127 partner limits assumed): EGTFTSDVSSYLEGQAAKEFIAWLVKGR

SMILES | EC50 [1] [nM] | EC50 [2] [nM]
CCCCCCCOc1ccc(-c2cnc(-c3ccc(C[C@H](NC(=O)c4ccc(C(C)(C)C)s4)C(=O)N[C@@H](CCC)C(=O)O)cc3)nc2)cc1 [Compound 403] | 800 to 2500 | –
CCCCCCCOc1ccc(-c2cnc(-c3ccc(C[C@H](NC(=O)c4ccc(C(C)(C)C)s4)C(=O)N[C@H](CN)C(=O)O)cc3)nc2)cc1 [Compound 392] | 2500 to 5000 | –
CCCCCCCOc1ccc(-c2cnc(-c3ccc(C(NC(=O)c4ccc(C(C)(C)C)cc4)C(=O)O)cc3)nc2)cc1 (stereo not drawn) [Compound 670] | 2500 to 5000 | –
CC[C@H]1CC[C@H](c2ccc(-c3cnc(-c4ccc(C[C@@H](NC(=O)c5ccc(C(C)(C)C)s5)C(=O)N[C@@H](C)C(=O)O)cc4)nc3)cc2)CC1 [Compound 1270] | – | 800 to 2500
CCCc1ccc(C2CN(c3cnc(-c4ccc(C[C@H](NC(=O)c5ccc(C(C)(C)C)s5)C(=O)N5CC(C(=O)O)C5)cc4)nc3)C2)cc1 [Compound 1502] | – | 2500 to 5000
CCCCCCCOc1ccc(-c2cnc(-c3ccc(C[C@H](NC(=O)c4ccc(C(C)(C)C)cc4)C(=O)NC(CC(=O)O)c4cccnc4)cc3)nc2)cc1 (stereo partly drawn) [Compound 571] | 800 to 2500 | –
CCCCCCCOc1ccc(-c2cnc(-c3ccc(C[C@H](NC(=O)c4ccc(C(C)(C)C)s4)C(=O)N[C@H](C)C(=O)O)cc3)nc2)c(C)c1 [Compound 790] | 800 to 2500 | –
CCCCCCCOc1ccc(-c2cnc(-c3ccc(C[C@H](NC(=O)c4ccc(C(C)(C)C)cc4)C(=O)N[C@@H](CC(=O)O)C(=O)N4CCOCC4)cc3)nc2)cc1 [Compound 507] | 800 to 2500 | –
CCCCCCCOc1ccc(-c2cnc(-c3ccc(C[C@H](NC(=O)c4ccc(C(C)(C)C)cc4)C(=O)N4CCC(O)C(C(=O)O)C4)cc3)nc2)cc1 (stereo partly drawn) [Compound 661] | < 800 | –
CCCCCCCOc1ccc(-c2cnc(-c3ccc(C[C@H](NC(=O)c4ccc(C(C)(C)C)s4)C(=O)N4CC(C(=O)O)CC4C)cc3)nc2)cc1 (stereo partly drawn) [Compound 892] | < 800 | –
CCCc1ccc(-c2ccc(-c3cnc(-c4ccc(C[C@H](NC(=O)c5ccc(C(C)C)s5)C(=O)N5CC(C(=O)O)C5)cc4)nc3)c(F)c2)cc1 [Compound 1398] | – | < 800
CN(C)c1ccc(C2CCN(c3cnc(-c4ccc(CC(NC(=O)c5ccc(C(C)(C)C)s5)C(=O)N5CC(C(=O)O)C5)cc4)nc3)CC2)cc1 (stereo not drawn) [Compound 1486] | – | 800 to 2500
CC(C)(C)c1ccc(C(=O)N[C@@H](Cc2ccc(-c3ncc(-c4ccc(C5CCCC5)cc4)cn3)cc2)C(=O)N2CC(C(=O)O)C2)s1 [Compound 1089] | 800 to 2500 | –
CCCCCCCOc1ccc(-c2cnc(-c3ccc(CC(NC(=O)c4ccc(C(C)(C)C)s4)C(=O)N[C@@H](Cc4c[nH]c5ccccc45)C(=O)O)cc3)nc2)cc1 (stereo partly drawn) [Compound 432] | < 800 | –
C[C@@H](NC(=O)[C@H](Cc1ccc(-c2ncc(-c3ccc(OCCC4CCCCC4)cc3)cn2)cc1)NC(=O)c1ccc(C(C)(C)C)cc1)C(=O)O [Compound 794] | 800 to 2500 | –
CCCCCCCOc1c(C)cc(-c2cnc(-c3ccc(C[C@H](NC(=O)c4ccc(C(C)(C)C)cc4)C(=O)NCCC(=O)O)cc3)nc2)cc1C [Compound 705] | 800 to 2500 | –
CCCCCc1ccc(-c2cnc(-c3ccc(C[C@H](NC(=O)c4ccc(C(C)(C)C)cc4)C(=O)NCCC(=O)O)cc3)nc2)cc1 [Compound 676] | 2500 to 5000 | –
CCCCOc1cccc(-c2noc(-c3cnc(-c4ccc(C[C@H](NC(=O)c5ccc(C(C)(C)C)cc5)C(=O)NCCC(=O)O)cc4)nc3)n2)c1 [Compound 759] | 800 to 2500 | –
CCCCCCCOc1ccc(-c2cnc(-c3ccc(C[C@H](NC(=O)c4ccc(CC(C)C)s4)C(=O)N4CC[C@H](C(=O)O)C4)cc3)nc2)cc1 [Compound 847] | 2500 to 5000 | –
CCCCCCCOc1ccc(-c2cnc(-c3ccc(C[C@H](NC(=O)c4ccc(C(C)(C)C)s4)C(=O)NC(Cc4ccccc4)C(=O)O)cc3)nc2)cc1 (stereo partly drawn) [Compound 611] | < 800 | –
CCCCCCCOc1ccc(-c2cnc(-c3ccc(C[C@H](NC(=O)c4ccc(CCC)cc4)C(=O)N4CCC[C@H]4C(=O)O)cc3)nc2)cc1 [Compound 1073] | 800 to 2500 | –
